Here are results for four compounds from patent US6458826B2, “Composition for repelling and deterring pests” (Navartis Animal Health US, Inc., priority 1998, dated 2002).

One assay has as its system ticks. Nature of the assay: Arena test method for testing vermin-repellent substances. It is filed as in vivo. As to conditions: 1 to 100 μg/cm^2 on filter paper, video evaluation versus control and DEET. How it is done:
Arena Test Method for Testing Vermin-repellent Substances
This method is carried out in titre plates having 6 wells with a cross-section of 5 cm each, using a computer-supported video system. Each well of the titre plate is lined with a circular filter paper or another suitable carrier material. The substance of formula I to be tested is dissolved in methanol, acetonitrile or another suitable solvent, with ultrasound treatment and heating being employed for poorly-soluble substances. In an amount of 1 to 100 μg/cm^2, the dissolved test substance is placed in the centre of the filter paper on a quadrant or circular area of ca. 2.4 cm^2 radius. 4 of the 6 wells are filled with different test substances or with the same test substance in different dilutions (e.g. 1, 3.2, 5, 10 and 20 μg/cm^2). The 5th well is treated with DEET (N,N-diethyl-m-toluamide) as standard substance. The 6th well is filled with the pure solvent and serves as a control. […] In this way, neutral and repellent substances are determined. At the same time, the duration of activity of the test substance is determined and compared with that of the standard. […] This frequency is evaluated statistically and thus quantitatively by the Willcoxon method in a comparison with the control and with the standard. […]

The test system of assay [1] is Amblyomma hebraeum or variegatum (nymphs). Nature of the assay: Arena test in vitro against Amblyomma hebraeum or variegatum (nymphs). As to conditions: even up to a dilution of 3.2 μg/cm^2. The assay is classed as in vivo. The procedure:
(§1) This method is carried out in titre plates having 6 wells with a cross-section of 5 cm each, using a computer-supported video system. Each well of the titre plate is lined with a circular filter paper or another suitable carrier material. The substance of formula I to be tested is dissolved in methanol, acetonitrile or another suitable solvent, with ultrasound treatment and heating being employed for poorly-soluble substances. In an amount of 1 to 100 μg/cm^2, the dissolved test substance is placed in the centre of the filter paper on a quadrant or circular area of ca. 2.4 cm^2 radius. 4 of the 6 wells are filled with different test substances or with the same test substance in different dilutions (e.g. 1, 3.2, 5, 10 and 20 μg/cm^2). The 5th well is treated with DEET (N,N-diethyl-m-toluamide) as standard substance. The 6th well is filled with the pure solvent and serves as a control. 60 to 100 larvae or 25 to 50 nymphs or 10 to 25 adults of the parasite to be tested, e.g. ticks, are added to each filter paper, and the system is covered with a pane of glass and positioned under a video camera. At intervals of 5 seconds, the video camera takes individual pictures of all 6 wells. For a qualitative evaluation, these images are observed in a time-lapse as a continuous film, optically following the movements of the parasites on the filter paper and comparing them with the movements in the control well no. 6 or with the standard in the 5th well. A qualitative observation is thus made as to whether the test parasites move evenly over the whole surface of the filter paper and ignore the test substance, or whether and over what period they avoid the treated zone, and what influence the dilution of the test substance has on the behaviour of the test parasites. In this way, neutral and repellent substances are determined. At the same time, the duration of activity of the test substance is determined and compared with that of the standard. […] This frequency is evaluated statistically and thus quantitatively by the Willcoxon method in a comparison with the control and with the standard. […]

The subject of assay [2] is Boophilus microplus Biarra (larvae). Nature of the assay: Arena test in vitro against Boophilus microplus Biarra (larvae). The assay is classed as in vivo. Conditions: even up to a dilution of 3.2 μg/cm^2. How it is done: as §1
Assay [3] relates to Rhipicephalus sanguineus (nymphs). Nature of the assay: Arena test in vitro against Rhipicephalus sanguineus (nymphs). The assay is classed as in vivo. As to conditions: even up to a dilution of 3.2 μg/cm^2. How it is done:
as §1

In another assay the test system is vermin. As to conditions: cited from earlier work.

As for `OC(c1ccc(Cl)cc1)C1CCCN1` (stereo not drawn) [Compound 1.45, 2-[(1-[4-chorophenyl])(1-hydroxy)methyl]pyrrolidine], in the assay on ticks, the “repellent activity in arena test” value is recorded as “excellent activity”. Moreover, in assay [1], the “long-term activity against Amblyomma nymphs” value is on record as “Particularly marked long-term activity”. For the same compound, in assay [2], the “long-term activity against Boophilus larvae” value is given as “Particularly marked long-term activity”. For the same compound, the “long-term activity against Rhipicephalus sanguineus nymphs” value in assay [3] was “Particularly marked long-term activity”.
With `Cc1ccc(C(O)C2CCC(C)(C)N2)c(C)c1` (stereo not drawn) [Compound 1.55, 2-[(1-[2,4-dimethylphenyl])(1-hydroxy)methyl]-5,5-dimethyl-pyrrolidine], in the assay on ticks, the “repellent activity in arena test” value is listed as “excellent activity”. Also, in assay [1], the “long-term activity against Amblyomma nymphs” value was “Particularly marked long-term activity”. Besides, in assay [2], the “long-term activity against Boophilus larvae” value is “Particularly marked long-term activity”. For the same compound, the “long-term activity against Rhipicephalus sanguineus nymphs” value in assay [3] is “Particularly marked long-term activity”.
`OC(c1ccccc1)C1CCCN1` (stereo not drawn) [Compound 1.31, 2-[(1-phenyl)(1-hydroxy)methyl]pyrrolidine]: in assay [1], the “long-term activity against Amblyomma nymphs” value is recorded as “Particularly marked long-term activity”. The “long-term activity against Boophilus larvae” value in assay [2] is reported as “Particularly marked long-term activity”. The “long-term activity against Rhipicephalus sanguineus nymphs” value in assay [3] was “Particularly marked long-term activity”.
Take `CCN(CC)C(=O)c1cccc(C)c1` [DEET, N,N-diethyl-m-toluamide]: the “time after which it has to be reapplied (volatilizes rather rapidly)” value in the assay on vermin is given as “ca. 2 hours”.
